The source of these data is patent publication US20240308992A1 (Biopolar Youtang(Guangdong) Pharmaceutical Co., Ltd., priority 2021, published 2024).

The test concerns the target T1, Drak2 (Homo sapiens, UniProt O94768).
T1 sequence (O94768 1-372): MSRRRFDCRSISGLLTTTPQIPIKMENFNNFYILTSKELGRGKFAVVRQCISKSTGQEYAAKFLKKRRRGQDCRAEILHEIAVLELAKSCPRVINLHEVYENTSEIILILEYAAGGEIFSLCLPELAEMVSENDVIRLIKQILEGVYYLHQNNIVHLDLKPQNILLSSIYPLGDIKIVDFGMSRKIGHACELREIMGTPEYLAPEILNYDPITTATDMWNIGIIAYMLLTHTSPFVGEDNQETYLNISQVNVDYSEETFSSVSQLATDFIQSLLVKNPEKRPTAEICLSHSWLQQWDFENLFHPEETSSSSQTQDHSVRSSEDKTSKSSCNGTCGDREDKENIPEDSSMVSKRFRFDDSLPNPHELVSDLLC
Briefly: Drak2 activity test, ADP-Glo kinase assay (Promega). Format: biochemical. The note with it: inhibition of Drak2 kinase activity, 2 h room temperature, activity range classes, read-out: IC50_Drak2.
As to `CCCCC(=O)Nc1csc(-c2cncc(-c3ccc(C(=O)N(C4CC4)C4CCN(C)CC4)c(OC)c3)n2)c1` [Example B76, N-cyclopropyl-2-methoxy-N-(1-methylpiperidin-4-yl)-4-(6-(4-pentanamidothiophen-2-yl)pyrazin-2-yl)benzamide], the IC50 was 11 to 100 nM.
On to `CCCCC(=O)Nc1csc(-c2cncc(-c3ccc(OC)c(S(C)(=O)=O)c3)n2)c1` [Example 221], for which the IC50 is 101 to 1000 nM.
For `COc1cc(-c2cncc(-c3cc(NC(=O)CC4CCCCC4)cs3)n2)ccc1C(=O)Nc1nnnn1C` [Example B28, 2-methoxy-4-(6-(4-(2-cyclohexylacetamido)thiophen-2-yl)pyrazin-2-yl)-N-(1-methyl-1H-tetrazol-5-yl)benzamide] the value was 101 to 1000 nM.
As for `COc1cc(-c2cncc(-c3cc(NC(=O)CC4CCC4)cs3)n2)ccc1S(=O)(=O)N(C)C1CCN(C)CC1` [Example B104, 2-cyclobutyl-N-(5-(6-(3-methoxy-4-(N-methyl-N-(1-methylpiperidin-4-yl)sulfamoyl)phenyl)pyrazin-2-yl)thiophen-3-yl)acetamide], the IC50 lay in the range of 11 to 100 nM.
Consider `CCCCC(=O)Nc1csc(-c2cncc(-c3ccc4c(c3)OCCN4C(=O)C3CCN(C)CC3)n2)c1` [Example 214, N-[5-(6-{4-[(1-methylhexahydropyridin-4-yl)carbonyl]-3,4-dihydro-2H-benzo [2,1-b] [1,4]oxazinan-7-yl}pyrazine-2-y)thiophene-3-yl] pentanamide], for which the IC50 was in the range of 11 to 100 nM.
Turning to `COc1cc(-c2cncc(-c3cc(NC(=O)CC4CCCC4)cs3)n2)ccc1C(=O)Nc1nnco1` [Example B64, 4-(6-(4-(2-cyclopentylacetamido)thiophen-2-yl)pyrazin-2-yl)-2-methoxy-N-(1,3,4-oxadiazol-2-yl)benzamide], the IC50 fell in the range of 11 to 100 nM.
For the molecule `COc1cc(-c2cncc(-c3cc(OCC[C@H](C)CN)cs3)n2)ccc1C(=O)N(C)C1CCN(C)CC1` [Example 200, 4-[6-(4-{[(3S)-4-amino-3-methylbutyl]oxy}thiophen-2-yl)pyrazin-2-yl]-2-methoxy-N-methyl-N-(1-methylhexahydropyridin-4-yl) benzamide], the IC50 lay within 11 to 100 nM.
To `CCCCC(=O)Nc1csc(-c2cncc(N3CCN(S(C)(=O)=O)CC3)n2)c1` [Example D6, N-(5-(6-(4-(methylsulfonyl)piperazin-1-yl)pyrazin-2-yl)thiophen-3-yl)pentanamide] belongs 101 to 1000 nM.
On to `CCCCCCC(=O)Nc1csc(-c2cncc(-c3ccc(OC)c(OC)c3)n2)c1` [Example A30, N-(5-(6-(3,4-dimethoxyphenyl)pyrazin-2-yl)thiophen-3-yl)heptanamide], for which the IC50 is more than 10000 nM.
To `COc1cc(-c2cncc(-c3cc(NC(=O)CC4CCC4)cs3)n2)ccc1OCCN1CCCC1=O` [Example 170, 2-Cyclobutyl-N-{5-[6-(3-methoxy-4-{[2-(2-oxotetrahydro-1H-pyrrol-1-yl)ethyl]oxy}phenyl)pyrazin-2-yl]thiophen-3-yl} acetamide] belongs 11 to 100 nM; to `CCCCC(=O)Nc1csc(-c2cncc(-c3ccc(OC)c(OC)c3)c2C#N)c1` [Example C4, N-(5-(4-cyano-5-(3,4-dimethoxyphenyl)pyridin-3-yl)thiophen-3-yl)pentanamide], 1000 to 10000 nM.
For the molecule `CCCCC(=O)Nc1csc(-c2nccc(-c3ccc(OC)c(OC)c3)n2)c1` [Example A11, N-(5-(4-(3,4-dimethoxyphenyl)pyrimidin-2-yl)thiophen-3-yl)pentanamide], the IC50 was more than 10000 nM.
For `COc1cc(C(N)=O)c(-c2cncc(-c3cc(NC(=O)C4CCC4)cs3)n2)cc1OC` [Example A25, 2-(6-(4-(cyclobutanecarboxamido)thiophen-2-yl)pyrazin-2-yl)-4,5-dimethoxybenzamide] the value was more than 10000 nM; for `COc1cc(-c2cncc(-c3cc(OCC[C@H](C)CN)cs3)n2)ccc1C(=O)N(C)C1CCN(C)CC1` [Example G1, (S)-4-(6-(4-(4-amino-3-methylbutoxy)thiophen-2-yl)pyrazin-2-yl)-2-methoxy-N-methyl-N-(1-methylpiperidin-4-yl) benzamide], 101 to 1000 nM; for `COc1cc(-c2cncc(-c3cc(NC(=O)CC4CCCC4)cs3)n2)ccc1C(=O)N1CCN(C2CCN(C)CC2)CC1` [Example B52, 2-cyclopentyl-N-(5-(6-(3-methoxy-4-(4-(1-methylpiperidin-4-yl)piperazine-1-carbonyl)phenyl)pyrazin-2-yl)thiophen-3-yl)acetamide], 11 to 100 nM.
To `CCCCC(=O)Nc1csc(-c2cncc(-c3ccc(N)c(OC)c3)n2)c1` [Example 196, N-{5-[6-(4-amino-3-methoxyphenyl)pyrazin-2-yl]thiophen-3-yl}pentanamide] belongs less than 10 nM; to `CCCCC(=O)Nc1csc(-c2cncc(-c3ccc(C(=O)N(C)CCN(C)C)c(OC)c3)n2)c1` [Example B55, N-(2-(dimethylamino)ethyl)-2-methoxy-N-methyl-4-(6-(4-pentanamidothiophen-2-yl)pyrazin-2-yl)benzamide], 11 to 100 nM.
For `COc1cc(-c2cncc(-c3cc(NC(=O)CC4CCC4)cs3)n2)ccc1OCC(=O)N1CCN(C)CC1` [Example 176, 2-cyclobutyl-N-{5-[6-(3-methoxy-4-{[2-(4-methylpiperazin-1-yl)-2-oxoethyl]oxy}phenyl)pyrazin-2-yl]thiophen-3-yl} acetamide] the value was less than 10 nM.
On to `CCCCC(=O)Nc1csc(-c2cccc(-c3ccc(C(=O)N(C4CC4)C4CCN(C)CC4)c(OC)c3)n2)c1` [Example B75, N-cyclopropyl-2-methoxy-N-(1-methylpiperidin-4-yl)-4-(6-(4-pentanamidothiophen-2-yl)pyridin-2-yl)benzamide], for which the IC50 is more than 10000 nM.
As to `CCCCC(=O)Nc1csc(-c2cncc(-c3cc(OC)ccc3OC)n2)c1` [Example A13, N-(5-(6-(2,5-dimethoxyphenyl)pyrazin-2-yl)thiophen-3-yl)pentanamide], the IC50 lay within 101 to 1000 nM.
As to `Cn1ccc2c(-c3cncc(-c4cc(NC(=O)CC5CCC5)cs4)n3)ccnc21` [Example 224], the IC50 was 101 to 1000 nM.
To `CCCCCC(=O)Nc1csc(-c2cncc(-c3ccc(OC)c(OC)c3)n2)c1` [Example A29, N-(5-(6-(3,4-dimethoxyphenyl)pyrazin-2-yl)thiophen-3-yl)hexanamide] belongs 101 to 1000 nM; to `COc1cc(-c2cncc(-c3cc(NC(=O)CC4CCC4)cs3)n2)ccc1O` [Example 186], less than 10 nM; to `COc1cc(-c2cncc(-c3cc(NC(=O)C(C)(C)C4CCC4)cs3)n2)ccc1C(=O)N(C)C1CC2(C1)CN(C)C2` [Example 201, 4-(6-{4-[(2-cyclobutyl-2-methylpropionyl)amino]thiophen-2-yl}pyrazin-2-yl)-2-methoxy-N-methyl-N-(2-methyl-2-azaspiro [3.3]hept-6-yl) benzamide], 1000 to 10000 nM.
Turning to `COc1cc(-c2cncc(-c3cc(NC(=O)CC4(C)COC4)cs3)n2)ccc1C(=O)N(C)C1CCN(C)CC1` [Example B82, 2-methoxy-N-methyl-4-(6-(4-(2-(3-methyloxetan-3-yl)acetamido)thiophen-2-yl)pyrazin-2-yl)-N-(1-methylpiperidin-4-yl)benzamide], the IC50 lay in the range of 101 to 1000 nM.
Regarding `COc1cc(-c2cncc(-c3cc(NC(=O)C4CCC4)cs3)n2)ccc1Cl` [Example A15, N-(5-(6-(4-chloro-3-methoxyphenyl)pyrazin-2-yl)thiophen-3-yl)cyclobutanecarboxamide], the IC50 was in the range of 101 to 1000 nM.
Consider `COc1cc(-c2cncc(-c3cc(NC(=O)CC4CCCC4)cs3)n2)ccc1C(=O)N1CCC(OC)CC1` [Example B54, 2-cyclopentyl-N-(5-(6-(3-methoxy-4-(4-methoxypiperidine-1-carbonyl)phenyl)pyrazin-2-yl)thiophen-3-yl)acetamide], for which the IC50 was in the range of 11 to 100 nM.
As for `COc1cc(-c2cncc(-c3cc(NC(=O)C(C)(C)C4CCC4)cs3)n2)ccc1C(=O)N(C)C1CCN(C)CC1` [Example B100, 4-(6-(4-(2-cyclobutyl-2-methylpropanamido)thiophen-2-yl)pyrazin-2-yl)-2-methoxy-N-methyl-N-(1-methylpiperidin-4-yl)benzamide], the IC50 is 11 to 100 nM.
`CCCCC(=O)Nc1csc(-c2cncc(-c3ccc(C(=O)N(C)C4CCN(C)CC4)c(F)c3)n2)c1` [Example B73, 2-fluoro-N-methyl-N-(1-methylpiperidin-4-yl)-4-(6-(4-pentanamidothiophen-2-yl)pyrazin-2-yl)benzamide]: the IC50 fell in the range of 101 to 1000 nM.
In the case of `COc1cc(-c2cncc(-c3cc(NC(=O)CC4CCC4)cs3)n2)ccc1C(=O)Nc1nnnn1C` [Example B26, 2-methoxy-4-(6-(4-(2-cyclobutylacetamido)thiophen-2-yl)pyrazin-2-yl)-N-(1-methyl-1H-tetrazol-5-yl)benzamide], the IC50 was in the range of 11 to 100 nM.
Take `O=C(CC1CCC1)Nc1csc(-c2cncc(-c3ccc4cnn(C5CC5)c4c3)n2)c1` [Example 212, 2-Cyclobutyl-N-{5-[6-(1-cyclopropylindazol-6-yl)pyrazin-2-yl]thiophen-3-yl}acetamide]: the IC50 fell in the range of 101 to 1000 nM.
Take `CCCCC(=O)Nc1csc(-c2cncc(-c3cc(OC)c(OC)cc3C(N)=O)n2)c1` [Example A26, 4,5-dimethoxy-2-(6-(4-pentanamidothiophen-2-yl)pyrazin-2-yl)benzamide]: the IC50 was in the range of 1000 to 10000 nM.
As to `COc1cc(-c2cncc(-c3cc(NC(=O)CC4CC4)cs3)n2)ccc1C(=O)N(C)C1CCN(C)CC1` [Example B60, 4-(6-(4-(2-cyclopropylacetamido)thiophen-2-yl)pyrazin-2-yl)-2-methoxy-N-methyl-N-(1-methylpiperidin-4-yl)benzamide], the IC50 lay within 11 to 100 nM.
